How the values were obtained:
[1] = Test 2: Acute toxicity (mortality after seven days); assay type: in vivo; conditions: mouse, in vivo, po, 8000 mg/kg p.o., male ddY mice
Experimental: The test compounds suspended in 0.5% CMC-Na were administered p.o. to male ddY mice. The acute toxicity was determined based on the mortality after seven days. In respect of the compounds of Examples 1, 9, 10 and 11 of the present invention, the mortality was 0% even at a dose of as high as 8000 mg/kg by oral administration.

[2] = tested on: emulsion-induced hyperlipidemic rats; experiment: Test 1: antihyperlipidemic activity in emulsion-induced hyperlipidemic rats (serum Chol, HDL-Chol, liver weight); assay type: in vivo, male S.D. rats; conditions: 3 days, vs control; for change in vivo at 300 mg/kg / inhibition in vivo at 300 mg/kg: Rattus norvegicus, po, 72 h, 300 mg/kg/day via stomach tube; for change in vivo at 300 mg/kg: read-out: Increase rate of serum HDL-Chol; for inhibition in vivo at 300 mg/kg: read-out: Reduction rate of serum Chol.; for Degree of hepatomegaly (change rate of the liver weight): liver weight per 100 g body weight, 300 mg/kg/day
Experimental: The antihyperlipidemic activity in emulsion-induced hyperlipidemic rats:
Male S.D. rats weighing 80-90 g (4 weeks old) were used. They were divided into groups of 5 to 6 rats each. The test compounds suspended in 0.5% CMC-Na(carboxymethyl cellulose sodium salt) were given to the rats in a daily dose of 4 ml/kg (i.e. 300 mg/kg of the test compounds) via stomach tube every 10:00 a.m. After 30 min., lipids emulsion having the following composition was orally given to the rats in an amount of 2.5 ml per rat.
Cholic acid sodium salt 10.0 g
During the experimental period of 3 days, the rats were fed on a standard commercial diet and water ad libitum. […] The total cholesterol and HDL cholesterol were measured.
The weight of the liver was measured. To the control group, only the aqueous CMC-Na solution and the lipids emulsion were given.
The fractionation of lipoproteins was conducted by a dextran sulfate-MgCl2 precipitation method.
Cholesterol in serum was measured by means of a cholesterol measuring kit (Cholesterol C-Test Wako, manufactured by Wako Junyaku Co., Ltd.), and cholesterol in HDL was measured by means of NC Hi-Set, manufactured by Nippon Chemiphar Co., Ltd.
Further, the reduction rate of Chol was calculated by the following equation. [formula] where A is the amount of serum Chol (mg/dl) of the control group, and B is the amount of serum Chol (mg/dl) of the group to which the therapeutic agent was administered.
Likewise, the increase rate of HDL-Chol was calculated by the following equation. [formula] where C is the amount of serum HDL-Chol (mg/dl) of the control group, and D is the amount of serum HDL-Chol (mg/dl) of the group to which the therapeutic agent was administered.
The degree of hepatomegaly (i.e. the change rate of the liver weight) was calculated by the following equation. [formula] where E is the liver weight (g) per 100 g of the body weight of the control group, and F is the liver weight (g) per 100 g of the body weight of the group to which the therapeutic agent was administered.

[3] = in words; cited from earlier work

Row | SMILES | inhibition in vivo at 300 mg/kg [2] [%] | other results
1 | CCCCCCCC/C=C\CCCCCCCCOc1c2ncnc(SCC(=O)OCC)c2nn1C [Example 9, 2-Methyl-3-oleyloxy-7-ethoxycarbonylmethylthio-pyrazolo[4,3-d]pyrimidine] | 66 | mortality at 168 h [1]: 0%; change in vivo at 300 mg/kg [2]: 55%; Degree of hepatomegaly (change rate of the liver weight) [2]: +5%
2 | CCCCCCCCOc1c2ncnc(SCC(=O)OCC)c2nn1C [Example 42, 2-Methyl-3-n-octyloxy-7-ethoxycarbonylmethylthio-pyrazolo[4,3-d]pyrimidine] | 32 | –
3 | O=C(O)c1cccnc1 [nicotinic acid] | – | subsidiary ill effects reported [3]: flashing or gastroenteric troubles
4 | CCCCCCCC/C=C\CCCCCCCCOc1c2ncnc(SCC(=O)OCC)c2nn1-c1ccccc1 [Example 50, 2-Phenyl-3-oleyloxy-7-ethoxycarbonylmethylthio-pyrazolo[4,3-d]pyrimidine] | 35 | –
5 | CCOC(=O)CSc1ncnc2c(OCCOCc3ccccc3)n(C)nc12 [Example 36, 2-Methyl-3-(2-benzyloxyethoxy)-7-ethoxycarbonylmethylthio-pyrazolo[4,3-d]pyrimidine] | 44 | –
6 | CCCCCCCC/C=C\CCCCCCCCCCCCOc1c2ncnc(SCC(=O)OCC)c2nn1C [Example 69, 2-Methyl-3-erucyloxy-7-ethoxycarbonylmethylthio-pyrazolo[4,3-d]pyrimidine] | 59 | –
7 | C=CCCCCCCCCOc1c2ncnc(SCC(=O)OCC)c2nn1C [Example 45, 2-methyl-3-(9-decenyloxy)-7-ethoxycarbonylmethylthio-pyrazolo[4,3-d]pyrimidine] | 22 | –
8 | CCCCCCCCCCCCCCCCOc1c2ncnc(SCc3ccccc3)c2nn1C [Example 19, 2-Methyl-3-n-hexadecyloxy-7-benzylthio-pyrazolo[4,3-d]pyrimidine] | 42 | change in vivo at 300 mg/kg [2]: 31%; Degree of hepatomegaly (change rate of the liver weight) [2]: +8%
9 | CCCCCCCCCCCCCCC(C)Oc1c2ncnc(SCC(=O)OCC)c2nn1C (centres unmarked) [Example 43, 2-Methyl-3-(1-methylpentadecyloxy)-7-ethoxycarbonylmethylthio-pyrazolo[4,3-d]pyrimidine] | 28 | –
10 | CCCC=CCCOc1c2ncnc(SCC(=O)OCC)c2nn1-c1ccccc1 [Example 53, 2-Phenyl-3-(3-heptenyloxy)-7-ethoxycarbonylmethylthio-pyrazolo[4,3-d]pyrimidine] | 11 | –
11 | CCCCC/C=C\C/C=C\CCCCCCCCOc1c2ncnc(SCC(=O)OCC)c2nn1C [Example 10, 2-Methyl-3-linoleyloxy-7-ethoxycarbonylmethylthio-pyrazolo[4,3-d]pyrimidine] | 76 | mortality at 168 h [1]: 0%; change in vivo at 300 mg/kg [2]: 13%; Degree of hepatomegaly (change rate of the liver weight) [2]: +12%
12 | CCCCCCCCCCCCCCCCOc1c2ncnc(SCC(=O)OCC)c2nn1C [Example 1, 2-Methyl-3-n-hexadecyloxy-7-ethoxycarbonylmethylthio-pyrazolo[4,3-d]pyrimidine] | 58 | mortality at 168 h [1]: 0%; change in vivo at 300 mg/kg [2]: 42%; Degree of hepatomegaly (change rate of the liver weight) [2]: +8%
13 | CCCCCCCCCCCCCCCCOc1c2ncnc(SCC(=O)OC(C)C)c2nn1C [Example 16, 2-Methyl-3-n-hexadecyloxy-7-isopropoxycarbonylmethylthio-pyrazolo[4,3-d]pyrimidine] | 26 | –
14 | CCCCCCCCCCCCCCOc1c2ncnc(SCC(=O)OCC)c2nn1C [Example 3] | 41 | –
15 | CCCCC/C=C\C/C=C\CCCCCCCCOc1c2ncnc(SCC#N)c2nn1C [Example 57, 2-Methyl-3-linoleyloxy-7-cyanomethylthio-pyrazolo[4,3-d]pyrimidine] | 61 | –
16 | CCOC(=O)CSc1ncnc2c(OC3CCC(C)CC3)n(C)nc12 (centres unmarked) [Example 35, 2-Methyl-3-(4-methylcyclohexyloxy)-7-ethoxycarbonylmethylthio-pyrazolo[4,3-d]pyrimidine] | 13 | –

Row | SMILES | inhibition in vivo at 300 mg/kg [2] [%] | other results
17 | CCOC(=O)CSc1ncnc2c(OCCOCc3ccc(C(C)(C)C)cc3)n(-c3ccccc3)nc12 [Example 48, 2-Phenyl-3-[2-(4-t-butylbenzyloxy)ethyloxy]-7-ethoxycarbonylmethylthio-pyrazolo[4,3-d]pyrimidine] | 34 | –
18 | CCCCCCCCC#CCCCCCCCCOc1c2ncnc(SCC(=O)OCC)c2nn1C [Example 44, 2-Methyl-3-(9-octadecynyloxy)-7-ethoxycarbonylmethylthio-pyrazolo[4,3-d]pyrimidine] | 39 | –
19 | CCC=CCCOc1c2ncnc(SCC(=O)OCC)c2nn1-c1ccccc1 [Example 47, 2-Phenyl-3-(3-hexenyloxy)-7-ethoxycarbonylmethylthio-pyrazolo[4,3-d]pyrimidine] | 10 | –
20 | CCCCCCCCCCC/C=C\CCCCCOc1c2ncnc(SCC(=O)OCC)c2nn1C [Example 71, 2-Methyl-3-petroselinyloxy-7-ethoxycarbonylmethylthio-pyrazolo[4,3-d]pyrimidine] | 64 | –
21 | CCCCCCCCCCCCCCCCCCCCOc1c2ncnc(SCC(=O)OCC)c2nn1C [Example 8, 2-Methyl-3-n-eicosanyloxy-7-ethoxycarbonylmethylthio-pyrazolo[4,3-d]pyrimidine] | 37 | –
22 | C=CCCCCCCCCOc1c2ncnc(SCC(=O)OCC)c2nn1-c1ccccc1 [Example 51, 2-Phenyl-3-(9-decenyloxy)-7-ethoxycarbonylmethylthio-pyrazolo[4,3-d]pyrimidine] | 58 | –
23 | CCCCSCCOc1c2ncnc(SCC(=O)OCC)c2nn1-c1ccccc1 [Example 49, 2-Phenyl-3-(3-thia-heptyloxy)-7-ethoxycarbonylmethylthio-pyrazolo[4,3-d]pyrimidine] | 14 | –
24 | CCCCCCCCCCCCCCCCCOc1c2ncnc(SCC(=O)OCC)c2nn1C [Example 5] | 21 | change in vivo at 300 mg/kg [2]: 38%; Degree of hepatomegaly (change rate of the liver weight) [2]: +3%
25 | CCCCCCCCCCCCCCCCCCCCOc1c2ncnc(SC(C)(C)C(=O)OCC)c2nn1C [Example 29, 2-Methyl-3-n-eicosyloxy-7-(1-ethoxycarbonyl-1-methyl-ethylthio)-pyrazolo[4,3-d]pyrimidine] | 16 | –
26 | CCCCCCCCCCCCOc1c2ncnc(SC(C)(C)C(=O)OCC)c2nn1-c1ccccc1 [Example 32, 2-Phenyl-3-n-dodecyloxy-7-(1-ethoxycarbonyl-1-methylethylthio)-pyrazolo[4,3-d]pyrimidine] | 50 | –
27 | CCCCCCCCCCCCCCCCOc1c2ncnc(SCC(=O)c3ccccc3)c2nn1C [Example 18, 2-Methyl-3-n-hexadecyloxy-7-benzoylmethylthio-pyrazolo[4,3-d]pyrimidine] | 35 | change in vivo at 300 mg/kg [2]: 42%; Degree of hepatomegaly (change rate of the liver weight) [2]: +4%
28 | CCCCCCCCCCCCCCCCOc1c2ncnc(SCC(=O)OCCCC)c2nn1C [Example 33, 2-Methyl-3-n-hexadecyloxy-7-n-butoxycarbonylmethylthio-pyrazolo[4,3-d]pyrimidine] | 39 | –
29 | C=CCCCCCCCCCOc1c2ncnc(SCC(=O)OCC)c2nn1C [Example 73, 2-Methyl-3-(10-undecenyloxy)-7-ethoxycarbonylmethylthio-pyrazolo[4,3-d]pyrimidine] | 27 | –
30 | C=CCSc1ncnc2c(OCCCCCCCC/C=C\C/C=C\CCCCC)n(C)nc12 [Example 64, 2-Methyl-3-linoleyloxy-7-allylthio-pyrazolo[4,3-d]pyrimidine] | 12 | –
31 | CCCCC/C=C\C/C=C\CCCCCCCCOc1c2ncnc(SCC(=O)OCCCC)c2nn1C [Example 56, 2-Methyl-3-linoleyloxy-7-n-butoxycarbonylmethylthio-pyrazolo[4,3-d]pyrimidine] | 60 | –
32 | CCCCCCCCCCCCOc1c2ncnc(SCC(=O)OCC)c2nn1C [Example 2, 2-Methyl-3-n-dodecyloxy-7-ethoxycarbonylmethylthio-pyrazolo[4,3-d]pyrimidine] | 36 | –

Reference: patent US4654348A, “Pyrazolo[4,3-d]pyrimidine derivative, process for its production, antihyperlipidemic agent containing it, its intermediate, and process for the production of the intermediate” (Nissan Chemical Industries Ltd., priority 1984, dated 1987)
